Measurements as given in the supplement of paper PMC10307832.

How the values were obtained:
Assay in all cases: relative viability (nuclei count vs DMSO), 5 days (fraction); higher = more cells survive
[1] = compound: Cn1cc(-c2cnn3c(N)c(Br)c([C@@H]4CCCNC4)nc23)cn1 + CC1(C)CCC(c2ccc(Cl)cc2)=C(CN2CCN(c3ccc(C(=O)NS(=O)(=O)c4ccc(N[C@H](CCN5CCOCC5)CSc5ccccc5)c(S(=O)(=O)C(F)(F)F)c4)cc3)CC2)C1 [Navitoclax] (partner 0.5 µM)
How it was run: (§1)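 Relative viability was taken as the ratio of nuclei in treated wells to nuclei in vehicle wells. Lung cancer cell lines in 1536-well plates received compounds by pin tool one day after seeding, either one drug alone or a fixed anchor-drug dose plus five library-drug doses (not always all listed) in √10 steps. Nuclei were counted on 4× images after 5 days of treatment, and values are medians of duplicate plates.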

[2] = compound: Cn1cc(-c2cnn3c(N)c(Br)c([C@@H]4CCCNC4)nc23)cn1 + CCNC(=O)c1noc(-c2cc(C(C)C)c(O)cc2O)c1-c1ccc(CN2CCOCC2)cc1 [Luminespib] (partner 0.01 µM)
How it was run: as §1

[3] = compound: Cn1cc(-c2cnn3c(N)c(Br)c([C@@H]4CCCNC4)nc23)cn1 + COc1cc2c(Oc3ccc(NC(=O)C4(C(=O)Nc5ccc(F)cc5)CC4)cc3F)ccnc2cc1OCCCN1CCOCC1 [Foretinib] (partner 0.25 µM)
How it was run: as §1

[4] = compound: Cn1cc(-c2cnn3c(N)c(Br)c([C@@H]4CCCNC4)nc23)cn1 + C[C@]1(O)C[C@@H](c2nc(-c3ccc4ccc(-c5ccccc5)nc4c3)c3c(N)nccn32)C1 [Linsitinib] (partner 1 µM)
How it was run: as §1

| Cell Line | relative viability ([1]; first compound 0.05 µM) | relative viability ([1]; first compound 0.1581 µM) | relative viability ([1]; first compound 0.5 µM) | relative viability ([1]; first compound 1.581 µM) | relative viability ([1]; first compound 5 µM) | relative viability ([2]; first compound 0.05 µM) | relative viability ([2]; first compound 0.1581 µM) | relative viability ([2]; first compound 0.5 µM) | relative viability ([2]; first compound 1.581 µM) | relative viability ([2]; first compound 5 µM) | relative viability ([3]; first compound 0.05 µM) | relative viability ([3]; first compound 0.1581 µM) | relative viability ([3]; first compound 0.5 µM) | relative viability ([3]; first compound 1.581 µM) | relative viability ([3]; first compound 5 µM) | relative viability ([4]; first compound 0.05 µM) | relative viability ([4]; first compound 0.1581 µM) | relative viability ([4]; first compound 0.5 µM) | relative viability ([4]; first compound 1.581 µM) | relative viability ([4]; first compound 5 µM) |
| --- | --- | --- | --- | --- | --- | --- | --- | --- | --- | --- | --- | --- | --- | --- | --- | --- | --- | --- | --- | --- |
| NCI-H1734 | 0.885 | 0.906 | 0.918 | 0.57 | 0.733 | 0.197 | 0.185 | 0.201 | 0.178 | 0.149 | 0.918 | 1.01 | 0.908 | 0.799 | 0.694 | 0.942 | 0.932 | 0.901 | 0.778 | 0.744 |
| NCI-H1755 | 1.12 | 1.03 | 0.961 | 0.994 | 0.969 | 0.465 | 0.534 | 0.394 | 0.562 | 0.194 | 0.997 | 0.943 | 0.91 | 0.95 | 0.821 | 1.07 | 1.04 | 0.978 | 0.924 | 0.972 |
| NCI-H1793 | 0.43 | 0.517 | 0.386 | 0.383 | 0.292 | 0.211 | 0.815 | 0.233 | 0.172 | 0.152 | 0.71 | 0.806 | 0.63 | 0.683 | 0.518 | 0.983 | 1.18 | 0.87 | 0.83 | 0.513 |
| NCI-H1915 | 0.796 | 0.805 | 0.736 | 0.765 | 0.775 | 0.987 | 0.86 | 0.722 | 0.667 | 0.695 | 1.18 | 1.15 | 1.09 | 1.15 | 1.09 | 1.1 | 1.07 | 1.05 | 1.16 | 1.14 |
| NCI-H1944 | 0.92 | 1.01 | 1.05 | 1.01 | 0.858 | 0.705 | 0.671 | 0.706 | 0.635 | 0.344 | 0.895 | 0.953 | 0.834 | 0.799 | 0.689 | 1.16 | 1.2 | 1.12 | 1.06 | 0.867 |
| NCI-H1975 | 1.21 | 1.14 | 1.01 | 0.908 | 0.989 | 0.105 | 0.197 | 0.256 | 0.139 | 0.167 | 0.965 | 0.995 | 0.738 | 0.807 | 0.884 | 1.08 | 0.918 | 0.842 | 0.79 | 0.805 |
| NCI-H1993 | 0.793 | 0.898 | – | 0.873 | 0.831 | 1.03 | 0.887 | 0.543 | 0.666 | 0.567 | 0.747 | 0.806 | 0.483 | 0.667 | 0.657 | 0.718 | 0.69 | – | 0.672 | 0.739 |
| NCI-H2009 | 1.16 | 1.28 | 1.1 | 1.1 | 1 | 1.04 | 1.09 | 0.98 | 0.962 | 0.889 | 1.24 | 1.32 | 1.05 | 1.16 | 1.14 | 1.14 | 1.31 | 1.22 | 1.12 | 1.09 |
| NCI-H2023 | 1.06 | 0.727 | 0.789 | 0.304 | 0.192 | 0.873 | 0.305 | 0.234 | 0.167 | 0.123 | 0.785 | 0.604 | 0.688 | 0.201 | 0.178 | 0.582 | 0.452 | 0.421 | 0.244 | 0.135 |
| NCI-H2085 | 1.3 | 1.13 | 1.18 | 1.09 | 0.943 | 0.4 | 0.477 | 0.461 | 0.417 | 0.339 | 0.917 | 0.944 | 0.986 | 0.894 | 0.625 | 0.85 | 0.885 | 0.859 | 0.824 | 0.779 |
| NCI-H2087 | 1.02 | 1.14 | 1.04 | 1.05 | 0.948 | 0.143 | 0.168 | 0.192 | 0.151 | 0.175 | 1.18 | 1.22 | 0.989 | 1.32 | 1 | 1.1 | 1.07 | 0.998 | 1.04 | 0.857 |
| NCI-H2126 | 0.915 | 0.883 | 0.861 | 0.804 | 0.863 | 0.755 | 0.964 | 0.983 | 0.608 | 0.595 | 1.2 | 1.3 | 1.11 | 1.02 | 1.53 | 0.842 | 0.723 | 0.714 | 0.666 | 0.686 |
| NCI-H2228 | 1.09 | 1.12 | 1.13 | 0.64 | 0.481 | 0.138 | 0.132 | 0.212 | 0.124 | 0.112 | 0.747 | 0.942 | 0.671 | 0.738 | 0.433 | 0.975 | 0.895 | 0.628 | 0.586 | 0.459 |
| NCI-H2347 | 0.742 | 0.818 | 0.735 | 0.576 | 0.678 | 0.506 | 0.677 | 0.473 | 0.409 | 0.297 | 0.789 | 0.877 | 0.815 | 0.593 | 0.724 | 0.992 | 1.01 | 0.986 | 0.917 | 0.85 |
| NCI-H2405 | 0.815 | 0.976 | 0.904 | 0.867 | 0.624 | 0.717 | 0.858 | 0.705 | 0.73 | 0.439 | 0.978 | 0.952 | 1.05 | 0.989 | 0.919 | 0.922 | 0.875 | 1.02 | 0.842 | 0.785 |
| NCI-H3122 | 1.06 | 1.05 | 1.05 | 1.03 | 1.11 | 0.0947 | 0.0737 | 0.0857 | 0.0666 | 0.12 | 0.977 | 1.02 | 0.92 | 0.992 | 0.977 | 1.02 | 1.06 | 0.964 | 1.08 | 1.09 |
